Experimental data from patent US11484529B2, “Desmethylanethole trithione derivatives for the treatment of diseases linked to mitochondrial reactive oxygen species (ROS) production” (OP2 Drugs, priority 2017, dated 2022).

How the values were obtained:
H460 carcinoma cells = assay: Transwell cell migration (metastatic activity); assay type: cell-based, human; details: 100 μM NAC, 16 hours
Description: Cell migration assays were performed in Transwells (Corning Inc., 8.0-μm pore size). For migration assay, 2·10^4 cells in serum-free medium were added to the upper wells. Media containing 10% FBS were added to the lower wells. Cells that migrated through the filter after 16 hours were stained with 0.2% crystal violet and counted using the software Image J.
The Transwell test of cell migration has been utilized for this assay and the migration of H460 carcinoma cells has been measured in the presence of two different concentrations of AOX (5 and 10 μM) and compared to the effect of 100 μM N-acetyl cystein (NAC) as a positive control of cytosolic ROS production (FIG. 25).

NAD(P)H oxidase = assay: Non-mitochondrial ROS/H2O2 production by NAD(P)H oxidase (Amplex Red); assay type: biochemical; details: 10 to 100 μM; no mitochondria
Description: Rates of ROS/H2O2 production from heart mitochondria were assessed through the oxidation of the colorless, non-fluorescent indicator Amplex Red in the presence of exogenous horseradish peroxidase (HRP, EC 1.11.1.7, Sigma). H2O2 reacts with Amplex Red in a 1:1 stoichiometry, yielding the fluorescent compound resorufin (excitation: 560 nm; emission: 585 nm) which is stable once formed. Fluorescence was measured continuously with a spectro-fluorometer equipped with temperature control and stirring (SAFAS Xenius, Monaco). Isolated mitochondria (0.1 mg/mL) were incubated in the same experimental buffer than previously, supplemented with 15 μM Amplex Red and 10 μg/mL HRP. Glutamate (5 mM)/malate (2.5 mM) together with succinate (5 mM) were used as complex I and complex II substrates, respectively. Experiments were conducted under non-phosphorylating conditions in the presence of 15 μM atractyloside, i.e., under state IV conditions where […]. Afterwards, rotenone (1.5 μM), antimycin A (2 μM), and myxothiazol (0.2 μM) were sequentially added to inhibit the redox centers within the electron transfer chain (FIG. 2), namely sites IQ, IF (with rotenone), IIIQi (with antimycin A) and IIIQO (with myxothiazol). Assay was finally calibrated with known amounts of H2O2 (steps of 300 nM), in the presence of all relevant compounds, including AOL. The control test of the absence of effect of AOL on the Amplex Red assay itself and NAD(P)H oxidase ROS/H2O2 production was carried out in the absence of cardiac mitochondria and the presence of NAD(P)H oxidase (EC 1.6.3.3, 5 mU/mL, Sigma) and NADH (100 μM) solutions.
The specificity of AOL was further tested in vitro using the peroxidase-Amplex Red system utilized for the measurement of ROS/H2O2 by mitochondria, which in fact measures the appearance of H2O2 by the oxidation of Amplex Red to the fluorescent resorufin (see FIG. 4). In the absence of mitochondria and by adding instead a H2O2-producing system to the measuring system, it was possible to test the effect of AOL on this system. This has been carried out by using commercial NAD(P)H oxidase which produces H2O2 in the presence of added NAD(P)H and measuring the reduction of Amplex Red to resorufin (FIG. 4).
Isolated mitochondria (0.1 mg/mL) were incubated in the same experimental buffer than previously, supplemented with 15 μM Amplex Red and 10 μg/mL HRP. Glutamate (5 mM)/malate (2.5 mM) together with succinate (5 mM) were used as complex I and complex II substrates, respectively. Experiments were conducted under non-phosphorylating conditions in the presence of 15 μM atractyloside. Afterwards, rotenone (1.5 μM), antimycin A (2 μM), and myxothiazol (0.2 μM) were sequentially added to inhibit the redox centers within the electron transfer chain (see FIG. 2), namely sites IQ, IF (with rotenone), IIIQi (with antimycin A) and IIIQO (with myxothiazol). Assay was finally calibrated with known amounts of H2O2 (steps of 300 nM), in the presence of all relevant compounds, including AOX. The control test of the absence of effect of AOL, AOX and Oltipraz on the Amplex Red assay itself and NAD(P)H oxidase […] production was carried out in the absence of cardiac mitochondria and the presence of NAD(P)H oxidase (EC 1.6.3.3, 5 mU/mL, Sigma) and NADH (100 μM) solutions.
The mechanism of action of AOX was further tested in vitro using the peroxidase-Amplex Red system utilized for the measurement of ROS/H2O2 by mitochondria, which in fact measures the appearance of H2O2 by the oxidation of Amplex Red to the fluorescent resorufin (FIG. 22). In the absence of mitochondria and by adding instead a H2O2-producing system to the assay, it was possible to test the effect of AOX on this non-mitochondrial superoxide/H2O2 production. This has been carried out by using commercial NAD(P)H oxidase which produces H2O2 in the presence of added NAD(P)H and measuring the reduction of Amplex Red to resorufin. […]

site IQ = assay: ROS/H2O2 production, site targeted individually (96-well Amplex Red), 10 mM succinate alone; assay type: biochemical, rat; details: 0 to 80 μM; effect at concentrations as low as 2.5 μM
Description: After freshly isolating mitochondria from rat heart, then measuring protein quantity of the mitochondrial suspension, H2O2 production in response to the exogenous addition of increasing concentrations of AOL, AOX and Oltipraz was measured fluorimetrically with Amplex Red and horseradish peroxidase (HRP).
The two major sites of mitochondrial ROS/H2O2 production were targeted individually using the combination of succinate (energy substrate of respiratory complex 2) and known inhibitors of respiratory chain, namely for site IQ, 10 mM succinate alone (CCCP as positive control) and for site IIIQouter, 10 mM succinate, 4 μM rotenone and 2.5 μM antimycin A (myxothiazol as positive control). These “reaction” solutions were designed to generate maximal rates of ROS/H2O2 production predominantly from a single site within the chain (Quinlan et al. 2013. Redox Biol. 1:304-12).
For measurement, a working solution of 50 μM Amplex red reagent and 20 μg/ml HRP was mixed to the reaction buffer into the corresponding wells of a 96-well plate (Greiner 96 F-bottom), in the absence or presence of increasing concentrations (from 0 to 80 μM) of AOL, AOX or Oltipraz. Addition of mitochondria to a final concentration of 0.125 mg/mL per well initiated the assay. The appropriate total volume per microplate well was 200 μL.
Plates were incubated in the dark at room temperature for 20-25 minutes. A double orbital shaking (100 rpm-3 seconds) was applied before reading the endpoint fluorescence values on a CLARIOstar plate reader (BMG LABTECH GmbH, Germany). In fact, H2O2 reacts with Amplex Red in a 1:1 stoichiometry, yielding the fluorescent compound resorufin that was analyzed using the following optic settings (excitation wavelength at 546-20 nm; emission at 600-40 nm; gain: 750).
Also, an H2O2 standard curve, with concentrations ranging from 0 to 5 μM, was prepared in the experimental buffer that consisted in (in mM): 140 sucrose, 100 KCl, 1 EGTA, 20 MgCl2, 10 KH2PO4, and 1 g/L (w/v) BSA essentially fatty acid free (pH 7.2). […]

| SMILES | metastatic activity (cells crossing the membrane) (H460 carcinoma cells) | effect on ROS measurement with NAD(P)H oxidase (NAD(P)H oxidase) | inhibition of ROS production in site IQ (site IQ) |
| --- | --- | --- | --- |
| CC(=O)N[C@@H](CS)C(=O)O [NAC, N-acetyl cysteine] | huge increase in metastatic activity | – | – |
| Cc1c(-c2cnccn2)ssc1=S [Oltipraz] | – | constantly decreased the amount of ROS measured | only a poor effect |
